Data taken from publication PMC7642415, “Perturbed structural dynamics underlie inhibition and altered efflux of the multidrug resistance pump AcrB” (Nature Communications, 2020).
Where a SMILES comes first, the peptide text is derived from it.

Columns and labels:
AcrB [1] = molecular target: T1, AcrB (Escherichia coli, UniProt P31224); assay: differential HDX-MS on purified AcrB WT; type: binding
T1 construct: full-length AcrB with C-terminal 6xHis tag, in DDM micelles

AcrB [2] = molecular target: T2, AcrB (Escherichia coli, UniProt P31224, G288D); type: binding
T2 construct: full-length AcrB with C-terminal 6xHis tag, in DDM micelles
T2 sequence (P31224 whole entry G288D): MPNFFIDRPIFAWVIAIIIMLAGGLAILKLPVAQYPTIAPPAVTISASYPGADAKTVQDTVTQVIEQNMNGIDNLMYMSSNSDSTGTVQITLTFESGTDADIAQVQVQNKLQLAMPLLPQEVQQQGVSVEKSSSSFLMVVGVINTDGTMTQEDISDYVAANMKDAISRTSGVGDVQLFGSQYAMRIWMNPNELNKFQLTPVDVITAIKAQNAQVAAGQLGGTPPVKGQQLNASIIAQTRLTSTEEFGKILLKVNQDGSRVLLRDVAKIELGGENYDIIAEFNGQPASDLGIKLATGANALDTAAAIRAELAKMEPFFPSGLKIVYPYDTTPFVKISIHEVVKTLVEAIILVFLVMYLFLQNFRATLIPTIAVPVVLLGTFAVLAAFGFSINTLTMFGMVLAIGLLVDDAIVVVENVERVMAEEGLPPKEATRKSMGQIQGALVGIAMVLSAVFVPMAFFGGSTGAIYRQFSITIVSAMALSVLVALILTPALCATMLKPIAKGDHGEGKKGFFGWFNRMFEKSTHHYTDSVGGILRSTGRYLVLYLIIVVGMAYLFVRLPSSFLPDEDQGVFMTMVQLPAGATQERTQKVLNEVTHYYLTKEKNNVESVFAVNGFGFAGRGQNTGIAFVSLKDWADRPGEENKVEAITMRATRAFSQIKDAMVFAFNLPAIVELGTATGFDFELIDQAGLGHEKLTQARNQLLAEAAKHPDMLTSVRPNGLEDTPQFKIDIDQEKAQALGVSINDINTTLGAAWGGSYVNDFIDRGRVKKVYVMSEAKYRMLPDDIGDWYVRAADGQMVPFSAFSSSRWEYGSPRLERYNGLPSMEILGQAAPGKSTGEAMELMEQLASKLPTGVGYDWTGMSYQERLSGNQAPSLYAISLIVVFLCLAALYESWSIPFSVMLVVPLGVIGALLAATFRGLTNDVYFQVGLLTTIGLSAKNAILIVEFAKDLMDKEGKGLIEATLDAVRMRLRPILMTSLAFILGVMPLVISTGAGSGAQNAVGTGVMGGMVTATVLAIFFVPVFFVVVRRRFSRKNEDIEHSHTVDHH

T1 sequence (P31224 whole entry): as the sequence (P31224 whole entry G288D) above, with D288G counted along it

NC(N)=NCCC[C@H](NC(=O)[C@@H](N)Cc1ccccc1)C(=O)Nc1ccc2ccccc2c1 [PAβN, phenylalanine-arginine-β-naphthylamide] (HELM PEPTIDE1{F.R.[c1ccc2cc(N[*:1])ccc2c1]}$$$$V2.0)
differential HDX-MS on purified AcrB WT (AcrB [1]): inhibitor binding led to HDX reduction throughout extensive parts of the PC1/PC2 cleft of the drug-binding pockets
differential HDX-MS on purified AcrB G288D (AcrB [2]): Upon substrate binding, PAβN caused reduced HDX within the PC1/PC2 regions for AcrB^G288D
